Legend:
CDK7 = target: T1, CDK7 (Homo sapiens, UniProt P50613); test: CDK7 enzyme inhibition test; assay type: biochemical; conditions: [γ-33P]ATP, MBP substrate, 60 min preincubation at 25°C; Ki=IC50/(1+S/Km); read-out: Ki value of CDK7 inhibitory activity
T1 construct: purchased Carna Biosciences, Inc. 04-108
Description: The preparation of a buffer solution was performed by mixing a N-2-hydroxyethylpiperazine-N′-2-ethanesulfonic acid buffer solution (HEPES buffer solution) (pH 7.4), dithiothreitol (DTT), Triton X-100, and magnesium chloride (MgCl2). A 500 μM [γ-^33P]ATP solution was used by diluting a 10 mM ATP solution and a commercially available [γ-^33P]ATP solution (manufactured by PerkinElmer, Inc., Code No. NEG-302H) with the buffer solution. A CDK7 solution was used by diluting commercially available CDK7 (manufactured by Carna Biosciences, Inc., Catalog No. 04-108) with the buffer solution. A substrate solution was used by diluting myelin basic protein (MBP) with the buffer solution. As for the preparation of a reaction solution, the buffer solution, the CDK7 solution, and the substrate solution were mixed at 4° C. to obtain a reaction solution.
CDK7 enzyme reaction was performed by adding 5 μL of a test compound solution prepared with 10% DMSO/90% injectable distilled water, and 40 μL of the reaction solution to a 1.5 mL microtube at 4° C. and preincubating the microtube at 25° C. for 60 minutes in a water bath incubator. Subsequently, reaction was performed at 30° C. for 20 minutes by adding 5 μL of the 500 μM [γ-^33P]ATP solution. After the reaction, a 10% aqueous trichloroacetic acid (TCA) solution was added to each microtube while cooled to 4° C., and mixed in a vortex mixer to terminate the reaction. The resultant was left standing at 4° C. for 10 minutes and then centrifuged, and the supernatant was discarded. Next, a 2% aqueous trichloroacetic acid (TCA) solution was added thereto, mixed in a vortex mixer, and then centrifuged, and the supernatant was discarded. This washing operation was performed twice. After the washing, precipitates were dissolved in a 1 N aqueous sodium hydroxide (NaOH) solution, and the energy quantity (radioactivity) of the reaction product was measured with a liquid scintillation counter.
The calculation of the inhibitory activity of the test compound against CDK7 was performed as a test compound concentration inhibiting 50% of the amount of ^33P bound to MBP (IC50 value) by using EXSUS (version 8.1.0, manufactured by CAC Exicare Corp.).
The calculation of a Ki value was performed according to the following calculation expression wherein S represents the concentration of ATP contained in the reaction solution, and Km represents a Michaelis-Menten constant: Ki=IC50/(1+S/Km)

[1] = tested on: human large intestine cancer cell line (HCT-116); test: Human large intestine cancer (HCT-116) cell growth inhibition test; assay type: cell-based; conditions: HCT-116, 72 h, culture for 3 days, sulforhodamine B, read-out: GI50 value, HCT-116 cell growth inhibition
Description: The measurement of a human large intestine cancer cell growth inhibitory effect was carried out by modifying the method of Simak et al. (Cancer Research, 69, 6208 (2009)).
A human large intestine cancer cell line (HCT-116, obtained from DS Pharma Biomedical Co., Ltd.) was cultured in a McCoy's 5A medium (manufactured by Thermo Fisher Scientific, Inc.) containing 10% fetal bovine serum (FBS) (manufactured by Thermo Fisher Scientific, Inc.) and 1% penicillin/streptomycin/amphotericin B (manufactured by Thermo Fisher Scientific, Inc.) and inoculated at 0.5 to 2.0×10^3 cells/well in a 96-well plate. After overnight culture in a carbon dioxide incubator, the medium was replaced with a fresh medium on the next day, and a test compound dissolved in DMSO (final DMSO concentration: 0.1%) was added thereto and left standing in a carbon dioxide incubator. After culture for 3 days, the absorbance thereof was measured by using In Vitro Toxicology Assay Kit Sulforhodamine B based (manufactured by Sigma-Aldrich Co. LLC.).
The rate of inhibition of cell growth at each concentration was calculated from the test compound concentration and the absorbance of sulforhodamine B, and the concentration of the test compound necessary for inhibiting 50% of cell growth (GI50 value) was calculated by using EXSUS (version 8.1.0, manufactured by CAC Exicare Corp.).

T1 sequence (P50613 whole entry): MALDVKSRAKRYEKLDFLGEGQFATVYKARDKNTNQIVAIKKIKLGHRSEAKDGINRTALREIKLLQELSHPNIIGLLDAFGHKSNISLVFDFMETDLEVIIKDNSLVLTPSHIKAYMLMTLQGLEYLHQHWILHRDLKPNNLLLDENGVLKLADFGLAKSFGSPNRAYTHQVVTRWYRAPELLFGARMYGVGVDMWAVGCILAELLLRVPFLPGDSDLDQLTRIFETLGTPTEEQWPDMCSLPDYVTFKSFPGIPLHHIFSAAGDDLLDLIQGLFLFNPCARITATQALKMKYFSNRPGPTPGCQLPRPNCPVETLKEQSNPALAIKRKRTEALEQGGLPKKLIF
T1 sequence (P51946 whole entry partner): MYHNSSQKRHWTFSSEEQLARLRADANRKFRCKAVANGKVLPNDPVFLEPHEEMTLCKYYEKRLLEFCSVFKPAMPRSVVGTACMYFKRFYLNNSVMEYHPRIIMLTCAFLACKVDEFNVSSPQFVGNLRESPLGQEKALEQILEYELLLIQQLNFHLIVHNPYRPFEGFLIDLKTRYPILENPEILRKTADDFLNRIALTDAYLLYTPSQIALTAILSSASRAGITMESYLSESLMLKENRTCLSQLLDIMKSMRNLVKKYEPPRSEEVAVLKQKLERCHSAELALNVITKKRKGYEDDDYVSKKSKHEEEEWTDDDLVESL
T1 sequence (P51948 whole entry partner): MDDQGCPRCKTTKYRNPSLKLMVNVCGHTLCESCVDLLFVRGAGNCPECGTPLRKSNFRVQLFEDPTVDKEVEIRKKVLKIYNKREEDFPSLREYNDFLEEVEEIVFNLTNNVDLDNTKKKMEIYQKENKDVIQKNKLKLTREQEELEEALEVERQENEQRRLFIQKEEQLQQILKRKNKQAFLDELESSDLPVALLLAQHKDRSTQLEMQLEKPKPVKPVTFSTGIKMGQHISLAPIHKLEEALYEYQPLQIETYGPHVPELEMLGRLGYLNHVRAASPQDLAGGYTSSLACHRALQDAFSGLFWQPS

SMILES	Ki (CDK7) [nM]	GI50 [1] [nM]
Cc1cccc(Br)c1NC(=O)N1Cc2c(NC(=O)C(C)(C)[Si](C)(C)C)n[nH]c2C1(C)C [II-290, N-(2-Bromo-6-methylphenyl)-6,6-dimethyl-3-[2-methyl-2-(trimethylsilyl)propanamido]-4,6-dihydropyrrolo[3,4-c]pyrazole-5(1H)-carboxamide]	≤ 50	
CC[Si](C)(C)C1(C(=O)Nc2n[nH]c3c2CN(C(=O)Nc2ccccc2F)C3(C)C)CCC1 [IV-4, 3-[1-(Ethyldimethylsilyl)cyclobutanecarboxamido]-N-(2-fluorophenyl)-6,6-dimethyl-4,6-dihydropyrrolo[3,4-c]pyrazole-5(1H)-carboxamide]		≤ 100
CC1(C)c2[nH]nc(NC(=O)C3([Si](C)(C)C)CCC3)c2CN1C(=O)Nc1cccc(F)c1 [IV-5, N-(3-Fluorophenyl)-6,6-dimethyl-3-[1-(trimethylsilyl)cyclobutanecarboxamido]-4,6-dihydropyrrolo[3,4-c]pyrazole-5(1H)-carboxamide]		≤ 100
CC1(C)c2[nH]nc(NC(=O)C3([Si](C)(C)C)CCC3)c2CN1C(=O)Nc1cccc(Cl)c1 [IV-11, N-(3-Chlorophenyl)-6,6-dimethyl-3-[1-(trimethylsilyl)cyclobutanecarboxamido]-4,6-dihydropyrrolo[3,4-c]pyrazole-5(1H)-carboxamide]		≤ 100
Cc1ccc(NC(=O)N2Cc3c(NC(=O)C4([Si](C)(C)C)CCC4)n[nH]c3C2(C)C)cc1 [IV-25, 6,6-Dimethyl-N-(p-tolyl)-3-[1-(trimethylsilyl)cyclobutanecarboxamido]-4,6-dihydropyrrolo[3,4-c]pyrazole-5(1H)-carboxamide]		≤ 100
CCOc1ccccc1NC(=O)N1Cc2c(NC(=O)C3([Si](C)(C)C)CCC3)n[nH]c2C1(C)C [IV-81, N-(2-Ethoxyphenyl)-6,6-dimethyl-3-[1-(trimethylsilyl)cyclobutanecarboxamido]-4,6-dihydropyrrolo[3,4-c]pyrazole-5(1H)-carboxamide]		≤ 100
Cc1cccc(NC(=O)N2Cc3c(NC(=O)C4([Si](C)(C)C)CCC4)n[nH]c3C2(C)C)c1F [IV-123, N-(2-Fluoro-3-methylphenyl)-6,6-dimethyl-3-[1-(trimethylsilyl)cyclobutanecarboxamido]-4,6-dihydropyrrolo[3,4-c]pyrazole-5 (1H)-carboxamide]		≤ 100
CC1(C)c2[nH]nc(NC(=O)C3([Si](C)(C)C)CCC3)c2CN1C(=O)Nc1cc(F)ccc1Cl [IV-191, N-(2-Chloro-5-fluorophenyl)-6,6-dimethyl-3-[1-(trimethylsilyl)cyclobutanecarboxamido]-4,6-dihydropyrrolo[3,4-c]pyrazole-5 (1H)-carboxamide]		≤ 100
CC1(C)c2[nH]nc(NC(=O)C3([Si](C)(C)C)CCC3)c2CN1C(=O)Nc1cc(Cl)ccc1Cl [IV-197, N-(2,5-Dichlorophenyl)-6,6-dimethyl-3-[1-(trimethylsilyl)cyclobutanecarboxamido]-4,6-dihydropyrrolo[3,4-c]pyrazole-5(1H)-carboxamide]		≤ 100
Cc1ccc(Cl)c(NC(=O)N2Cc3c(NC(=O)C4([Si](C)(C)C)CCC4)n[nH]c3C2(C)C)c1 [IV-213, N-(2-Chloro-5-methylphenyl)-6,6-dimethyl-3-[1-(trimethylsilyl)cyclobutanecarboxamido]-4,6-dihydropyrrolo[3,4-c]pyrazole-5 (1H)-carboxamide]		≤ 100
COc1ccc(Cl)c(NC(=O)N2Cc3c(NC(=O)C4([Si](C)(C)C)CCC4)n[nH]c3C2(C)C)c1 [IV-245, N-(2-Chloro-5-methoxyphenyl)-6,6-dimethyl-3-[1-(trimethylsilyl)cyclobutanecarboxamido]-4,6-dihydropyrrolo[3,4-c]pyrazole-5(1H)-carboxamide]		≤ 100

The next lines start with results.

Ki (CDK7) [nM]	SMILES	GI50 [1] [nM]
≤ 50	CN(C(=O)N1Cc2c(NC(=O)C3([Si](C)(C)C)CCC3)n[nH]c2C1(C)C)c1ccccc1 [I-965, N,6,6-Trimethyl-N-phenyl-3-[1-(trimethylsilyl)cyclobutanecarboxamido]-4,6-dihydropyrrolo[3,4-c]pyrazole-5(1H)-carboxamide]	
≤ 50	Cc1cccc(Br)c1NC(=O)N1Cc2c(NC(=O)C3([Si](C)(C)C)CC3)n[nH]c2C1(C)C [III-299, N-(2-Bromo-6-methylphenyl)-6,6-dimethyl-3-[1-(trimethylsilyl)cyclopropanecarboxamido]-4,6-dihydropyrrolo[3,4-c]pyrazole-5(1H)-carboxamide]	≤ 100
≤ 50	CC1(C)c2[nH]nc(NC(=O)C3([Si](C)(C)C)CCC3)c2CN1C(=O)Nc1ccc(F)cc1 [IV-7, N-(4-Fluorophenyl)-6,6-dimethyl-3-[1-(trimethylsilyl)cyclobutanecarboxamido]-4,6-dihydropyrrolo[3,4-c]pyrazole-5(1H)-carboxamide]	≤ 100
≤ 50	Cc1cccc(NC(=O)N2Cc3c(NC(=O)C4([Si](C)(C)C)CCC4)n[nH]c3C2(C)C)c1 [IV-23, 6,6-Dimethyl-N-(m-tolyl)-3-[1-(trimethylsilyl)cyclobutanecarboxamido]-4,6-dihydropyrrolo[3,4-c]pyrazole-5(1H)-carboxamide]	≤ 100
≤ 50	CC1(C)c2[nH]nc(NC(=O)C3([Si](C)(C)C)CCC3)c2CN1C(=O)Nc1ccccc1C(F)(F)F [IV-51, 6,6-Dimethyl-N-[2-(trifluoromethyl)phenyl]-3-[1-(trimethylsilyl)cyclobutanecarboxamido]-4,6-dihydropyrrolo[3,4-c]pyrazole-5 (1H)-carboxamide]	≤ 100
≤ 50	CC1(C)c2[nH]nc(NC(=O)C3([Si](C)(C)C)CCC3)c2CN1C(=O)Nc1ccccc1C#N [IV-63, N-(2-Cyanophenyl)-6,6-dimethyl-3-[1-(trimethylsilyl)cyclobutanecarboxamido]-4,6-dihydropyrrolo[3,4-c]pyrazole-5(1H)-carboxamide]	≤ 100
≤ 50	COc1ccc(NC(=O)N2Cc3c(NC(=O)C4([Si](C)(C)C)CCC4)n[nH]c3C2(C)C)cc1 [IV-79, N-(4-Methoxyphenyl)-6,6-dimethyl-3-[1-(trimethylsilyl)cyclobutanecarboxamido]-4,6-dihydropyrrolo[3,4-c]pyrazole-5(1H)-carboxamide]	≤ 100
≤ 50	CC1(C)c2[nH]nc(NC(=O)C3([Si](C)(C)C)CCC3)c2CN1C(=O)Nc1ccccc1OC(F)(F)F [IV-93, 6,6-Dimethyl-N-[2-(trifluoromethoxy)phenyl]-3-[1-(trimethylsilyl)cyclobutanecarboxamido]-4,6-dihydropyrrolo[3,4-c]pyrazole-5(1H)-carboxamide]	≤ 100
≤ 50	CC1(C)c2[nH]nc(NC(=O)C3([Si](C)(C)C)CCC3)c2CN1C(=O)Nc1cccc(F)c1F [IV-99, N-(2,3-Difluorophenyl)-6,6-dimethyl-3-[1-(trimethylsilyl)cyclobutanecarboxamido]-4,6-dihydropyrrolo[3,4-c]pyrazole-5(1H)-carboxamide]	≤ 100
≤ 50	CC1(C)c2[nH]nc(NC(=O)C3([Si](C)(C)C)CCC3)c2CN1C(=O)Nc1ccc(F)cc1F [IV-101, N-(2,4-Difluorophenyl)-6,6-dimethyl-3-[1-(trimethylsilyl)cyclobutanecarboxamido]-4,6-dihydropyrrolo[3,4-c]pyrazole-5(1H)-carboxamide]	≤ 100
≤ 50	CC1(C)c2[nH]nc(NC(=O)C3([Si](C)(C)C)CCC3)c2CN1C(=O)Nc1cccnc1 [IV-1019, 6,6-Dimethyl-N-(pyridin-3-yl)-3-[1-(trimethylsilyl)cyclobutanecarboxamido]-4,6-dihydropyrrolo[3,4-c]pyrazole-5(1H)-carboxamide]	
